Experimental data published in patent US11517572B2, “Killing senescent cells and treating senescence-associated conditions using a SRC inhibitor and a flavonoid” (Mayo Foundation for Medical Education and Research, priority 2014, dated 2022).

Columns and labels:
[1] = system: IMR90 cells; assay: Killing of radiation-induced senescent vs proliferating IMR90 fibroblasts; format: cell-based, human; settings: enzastaurin at 0.25 0.5 and 2 μM
Excerpt: Senescence of human primary lung fibroblasts (IMR90) (IMR-90 (ATCC® CCL-186TH, Mannassas, Va.) was induced by irradiation. IMR90 cells in culture were subjected to 10 Gy radiation (Day-7). Four days after irradiation (Day-3), the culture media was changed. Three days after the media change (Day 0), the cells were exposed to media containing quercetin. Non-irradiated IMR90 cells were included as controls. Non-irradiated and irradiated IMR90 cells were exposed to quercetin at concentrations of 5, 10, 15, and 45 μM. Percent survival was determined four days after exposure to the drugs (Day 4). The number of viable cells was determined by using ATPLITE (Perkin-Elmer, Waltham, Mass.).
In a separate experiment, IMR90 cells were irradiated as described above to induce senescence. Approximately 20 days after irradiation, the senescent cells and proliferating IMR90 cells were exposed to enzastaurin at concentrations of 0.25 0.5 and 2 μM.

[2] = system: HUVEC cells; assay: Viability (ATPLITE) of senescent and proliferating HUVEC endothelial cells; format: cell-based, human; settings: enzastaurin in combination with dasatinib, FIG. 4E, 48 hours
Procedure: Human umbilical endothelial cells (HUVEC) (Lonza Group, Basel, Switzerland) were induced to senescence by exposure to 10 Gy radiation. Twenty days after irradiation, markers of cellular senescence (SA-β Gal) and growth arrest, determined by incorporation of BR dU, were evident. Non-senescent HUVEC cells used as control were plated at low density in culture media so that the cells were proliferating when exposed to the test drug. Senescent HUVEC cells and non-senescent, proliferating HUVEC cells were treated for 48 hours with quercetin, dasatinib, and enzastaurin as follows: (1) quercetin alone at 3.75, 7.5 and 15μ,M; (2) dasatinib alone at 25, 50, 100, and 200 nM; (3) enzastaurin alone at concentrations of 0.25 0.5 1 and 2 μM; (4) dasatinib at 100 nM plus quercetin at 7.5 μM; (5) with dasatinib at 50 nM plus quercetin at 7.5 μM; (6) dasatinib at 100 nM plus enzastaurin at 1.0 μM; (7) dasatinib at 100 nM plus enzastaurin at 0.5 μM; (8) dasatinib at 50 nM plus enzastaurin at 1.0 μM; (9) dasatinib at 50 nM plus enzastaurin at 0.5 μM; (10) quercetin at 15 μM and enzastaurin at 1.0 μM; (11) quercetin at 15 μM and enzastaurin at 1.0 μM; and (12) quercetin at 7.5 μM and enzastaurin at 1.0 μM. The number of viable cells was determined by ATPLITE (Perkin-Elmer, Waltham, Mass.). The data are presented in FIGS. 4A-4F as mean viability (ATP (μM))+SEM of 4.

[3] = system: Senescent cells; assay: SA-β-Gal senescent cells in adipose tissue of high fat fed p16-3MR mice; format: in vivo; settings: high fat diet four months, 25 mg/kg daily for five consecutive days, p=<0.004
Procedure: Groups of p16-3MR mice (n=6) were fed a high fat diet (60% fat) for four months mice or a regular chow diet. The presence of senescence cells was determined by measuring luminescence (i.e., p16 positive cells). […] Animals were then treated with ganciclovir or vehicle to determine if removal of senescent cells reduced the presence of senescent cells in adipose tissue. Groups of animals were treated with ganciclovir (GCV) or vehicle. Ganciclovir (25 mg/kg) was administered daily for five consecutive days. The presence of senescent cells in perirenal, epididymal, or subcutaneous inguinal adipose tissue was detected by SA-β-Gal staining Data were analyzed by ANOVA.

[4] = Glucose tolerance test and hemoglobin A1c in high fat fed p16-3MR mice; format: in vivo; settings: high fat diet, 3 rounds of 25 mg/kg daily for five days
Procedure: Groups of p16-3MR mice (n=9) were fed a high fat diet for four months mice or a regular chow diet. Animals were then treated with ganciclovir (3 rounds of 25 mg/kg ganciclovir administered daily for five consecutive days) or vehicle. A glucose bolus was given at time zero, and blood glucose was monitored at 20, 30, 60, and 120 minutes after delivering glucose to determine glucose disposal (see FIG. 18A). This was also quantified as “area under the curve” (AUC) (see FIGS. 18B and 18C), with a higher AUC value indicating glucose intolerance.

[5] = Insulin Tolerance Testing (ITT); format: in vivo, mice
Procedure: Insulin sensitivity was also determined (Insulin Tolerance Testing (ITT)).

[6] = Weight, body composition and food intake monitoring; format: in vivo; settings: p16-3MR mice, high fat diet
Excerpt: Changes in weight, body composition, and food intake were also monitored.

[7] = Glucose tolerance testing in DIO INK-ATTAC,p16-3MR mice; format: in vivo; settings: compared to vehicle-treated DIO mice
Procedure: Three-month old INK-ATTAC,p16-3MR mice were fed a high fat diet for 4 months. The animals were then treated with ganciclovir or vehicle. DIO mice were treated with ganciclovir on September 1 (see FIG. 21).

| body composition (percent of fat) [6] | food intake (grams per week) [6] | Compound | killing of proliferating IMR90 cells [1] | selective killing of senescent IMR90 cells ([1]; approximately 20 days after 10 Gy irradiation) | potentiating effect of dasatinib [2] | presence of senescent cells in epididymal fat (SA-β-Gal) [3] | Hemoglobin A1c [4] | glucose tolerance test AUC ([4]; vs vehicle-treated) | decrease in blood glucose in insulin tolerance testing ([5]; p16-3MR mice fed a high fat diet, 0, 14, 30, 60, and 120 minutes) | change in insulin tolerance testing ([5]; wild-type mice) | body weight [6] | glucose tolerance (areas under the curve in glucose tolerance tests) [7] |
| --- | --- | --- | --- | --- | --- | --- | --- | --- | --- | --- | --- | --- |
|  |  | Cn1cc(C2=C(c3cn(C4CCN(Cc5ccccn5)CC4)c4ccccc34)C(=O)NC2=O)c2ccccc21 [Enzastaurin, 3-(1-Methylindol-3-yl)-4-[1-[1-(pyridin-2-ylmethyl)piperidin-4-yl]indol-3-yl]pyrrole-2,5-dione] | did not kill the proliferating cells | did not selectively kill the senescent cells | slight potentiating effect |  |  |  |  |  |  |  |
| did not alter | did not alter | Nc1nc(O)c2ncn(COC(CO)CO)c2n1 [ganciclovir] |  |  |  | significant reduction | lower | significantly lower | greater decrease in blood glucose | not observed | did not alter | sustained and improved glucose tolerance |
